One test is described as follows: Inhibition of RIPK1 in human FADD-deficient Jurkat I 2.1 cells assessed as protection against TNFalpha-induced necroptosis measured after 24 hrs by MTS assay. (Tetrazolium assays rely on reduction of a dye to a coloured formazan, in cell work by metabolically active cells.)
By EC50 is commonly meant the concentration needed to bring the measured effect to its halfway point. Regarding `CCCCNc1nc2ccc([N+](=O)[O-])cc2[nH]1`, the EC50 came to 1.7 µM. Same read-out and setting: in the case of `CCCNc1nc2ccc([N+](=O)[O-])cc2[nH]1` it was 14.4 µM; in that of `CC(C)Nc1nc2ccc([N+](=O)[O-])cc2[nH]1`, above 25 µM; in that of `O=[N+]([O-])c1ccc2nc(NC3CCCCC3)[nH]c2c1`, 1.04 µM.

Regarding `O=[N+]([O-])c1ccc2nc(Nc3ccccc3)[nH]c2c1`, the EC50 worked out at 2.5 µM. The same measure, in the same setting: in the case of `CCCCNc1nc2cccc(C(=O)OC)c2[nH]1` it was 18.1 µM. The same measure, in the same setting: in the case of `COC(=O)c1cccc2nc(NC3CCCCC3)[nH]c12` it was 9 µM; in that of `Clc1ccc2nc(NC3CCCCC3)[nH]c2c1`, 4.4 µM; in that of `CCCCNc1nc2ccc([N+](=O)[O-])cc2s1`, 6.9 µM. On the same count and under the same terms, in the case of `CCCCNc1nc2cc([N+](=O)[O-])ccc2s1` it was 4.7 µM.

A short description of a further test: Inhibition of RIPK1 in human FADD-deficient Jurkat I 2.1 cells assessed as reduction in TNFalpha-induced necroptosis measured after 24 hrs by MTS assay.
In the case of `CCCCNc1nc2ccc([N+](=O)[O-])cc2[nH]1`, the EC50 came out at 1.7 µM.

(Values after BindingDB's records for doi:10.1016/j.ejmech.2020.112337 (Paris-Saclay University, 2020).)
